Consider 22 compounds from patent US20240343733A1, “COMPOUNDS FOR TARGETING DEGRADATION OF IRAK4 PROTEINS” (BIOGEN MA INC., priority 2021, published 2024).

SMILES strings stand for the structures. A value given as a limit tells only on which side of the number the result lay.

One test addresses T1, IKZF1 (Homo sapiens, UniProt Q13422).
T1 construct: endogenously expressing IKZF1 with HiBiT fusion tag via CRISPR
Description: IKZF1 Degradation Assay, HiBiT Method. In kind it is cell-based. Conditions: for DC50: NCIH929 cells expressing HiBiT-tagged IKZF1, 6 hours, top concentration 10 μM. The protocol:
Assay 2. IKZF1 Degradation Assay, HiBiT Method
Selected compounds of this disclosure were tested in an IKZF1 degradation assay using the HiBiT Method.
RPMI no-phenol red medium and fetal bovine serum (FBS) were purchased from Gibco (Grand Island, NY, USA). Nano-Glo® HiBiT Lytic Assay System was purchased from Promega (Madison, WI, USA). […] Cell culture flasks and 384-well microplates were acquired from VWR (Radnor, PA, USA).
IKZF1 degradation was determined based on quantification of luminescent signal using Nano-Glo® HiBiT Lytic Assay kit. […] NCIH929 cells expressing HiBiT-tagged IKZF1 were added into 384-well plates in RPMI medium containing 10% FBS and 0.05 mM 2-mercaptoethanol at a cell density of 15000 cells per well. The plates were kept at 37° C. with 5% CO2 for 6 hours. Cells treated in the absence of the test compound were the negative control and wells containing media only were the positive control. After 6-hour incubation, Nano-Glo® HiBiT Lytic Assay reagents were added to the designated wells. Luminescence was acquired on EnVision® Multilabel Reader (PerkinElmer, Santa Clara, CA, USA).

Another test addresses T2, IRAK4 (Homo sapiens, UniProt Q9NWZ3).
T2 construct: 293Tcells expressing HiBiT-tagged IRAK4 were then added into 384-well plates
T2 sequence (Q9NWZ3 1-460): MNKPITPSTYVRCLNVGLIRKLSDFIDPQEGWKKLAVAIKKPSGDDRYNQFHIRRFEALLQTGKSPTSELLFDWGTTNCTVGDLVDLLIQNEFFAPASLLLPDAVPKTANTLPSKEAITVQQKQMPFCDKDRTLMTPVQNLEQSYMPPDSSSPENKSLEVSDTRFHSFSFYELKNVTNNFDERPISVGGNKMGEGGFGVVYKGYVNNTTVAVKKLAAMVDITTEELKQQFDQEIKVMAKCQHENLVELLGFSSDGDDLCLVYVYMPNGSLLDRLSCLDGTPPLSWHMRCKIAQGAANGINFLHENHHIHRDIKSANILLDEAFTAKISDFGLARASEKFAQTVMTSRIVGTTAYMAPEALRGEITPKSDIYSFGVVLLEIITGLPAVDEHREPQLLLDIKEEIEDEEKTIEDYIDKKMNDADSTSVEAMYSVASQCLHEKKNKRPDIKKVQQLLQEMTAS
Description: IRAK4 Degradation Assay, HiBiT Method. As to conditions: 293T cells expressing HiBiT-tagged IRAK4, 6 hours. The class given is cell-based. The essentials:
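293T cells with HiBiT knocked in at the C-terminus of endogenous IRAK4, 10,000 per well, treated 6 h at 37 °C with an 11-point half-log series ([…]), in duplicate. Remaining IRAK4 read by Nano-Glo HiBiT lytic luminescence against DMSO-only and media-only controls.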

T1 sequence (Q96SW2 whole entry partner, the tested form may be a part): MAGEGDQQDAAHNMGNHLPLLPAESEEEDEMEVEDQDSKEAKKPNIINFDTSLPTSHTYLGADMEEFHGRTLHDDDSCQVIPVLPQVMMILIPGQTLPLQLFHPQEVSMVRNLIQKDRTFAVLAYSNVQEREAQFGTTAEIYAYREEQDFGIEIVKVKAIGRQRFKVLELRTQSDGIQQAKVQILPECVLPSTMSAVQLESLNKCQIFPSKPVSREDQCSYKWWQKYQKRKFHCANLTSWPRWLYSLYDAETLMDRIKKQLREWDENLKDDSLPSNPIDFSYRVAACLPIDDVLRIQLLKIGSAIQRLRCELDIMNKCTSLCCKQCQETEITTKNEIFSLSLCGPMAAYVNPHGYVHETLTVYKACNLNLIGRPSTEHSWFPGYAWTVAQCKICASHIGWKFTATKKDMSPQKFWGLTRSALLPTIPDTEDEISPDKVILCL
T1 sequence (Q16531 whole entry partner, the tested form may be a part): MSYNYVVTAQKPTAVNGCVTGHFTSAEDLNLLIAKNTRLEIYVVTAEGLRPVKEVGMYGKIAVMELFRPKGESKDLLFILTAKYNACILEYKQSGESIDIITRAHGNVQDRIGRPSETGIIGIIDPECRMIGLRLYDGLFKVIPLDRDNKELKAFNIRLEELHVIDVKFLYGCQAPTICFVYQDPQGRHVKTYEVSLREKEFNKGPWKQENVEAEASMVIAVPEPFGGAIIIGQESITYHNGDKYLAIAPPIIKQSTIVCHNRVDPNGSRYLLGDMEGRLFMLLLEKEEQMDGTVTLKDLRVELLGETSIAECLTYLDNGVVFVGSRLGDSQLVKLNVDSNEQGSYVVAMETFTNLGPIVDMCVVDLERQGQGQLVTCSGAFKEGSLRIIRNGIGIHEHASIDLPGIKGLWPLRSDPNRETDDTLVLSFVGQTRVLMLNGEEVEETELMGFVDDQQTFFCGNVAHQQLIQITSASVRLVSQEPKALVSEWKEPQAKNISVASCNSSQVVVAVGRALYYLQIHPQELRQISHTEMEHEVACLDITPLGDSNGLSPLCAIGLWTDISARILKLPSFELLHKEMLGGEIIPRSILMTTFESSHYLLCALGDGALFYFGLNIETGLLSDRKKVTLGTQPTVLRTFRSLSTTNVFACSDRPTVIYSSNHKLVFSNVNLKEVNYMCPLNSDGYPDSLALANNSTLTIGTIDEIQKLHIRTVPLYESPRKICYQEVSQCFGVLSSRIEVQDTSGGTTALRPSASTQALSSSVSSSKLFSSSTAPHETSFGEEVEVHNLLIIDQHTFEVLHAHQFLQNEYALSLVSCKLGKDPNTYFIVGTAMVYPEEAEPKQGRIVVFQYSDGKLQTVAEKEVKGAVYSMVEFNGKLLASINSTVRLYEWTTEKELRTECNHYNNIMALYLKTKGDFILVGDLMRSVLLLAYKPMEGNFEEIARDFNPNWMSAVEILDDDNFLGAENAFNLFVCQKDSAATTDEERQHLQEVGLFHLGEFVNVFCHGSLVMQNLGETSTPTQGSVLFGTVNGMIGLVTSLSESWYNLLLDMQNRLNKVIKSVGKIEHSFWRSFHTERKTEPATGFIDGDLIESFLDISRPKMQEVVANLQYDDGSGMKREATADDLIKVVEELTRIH
T1 sequence (Q13422 whole entry, the tested form may be a part): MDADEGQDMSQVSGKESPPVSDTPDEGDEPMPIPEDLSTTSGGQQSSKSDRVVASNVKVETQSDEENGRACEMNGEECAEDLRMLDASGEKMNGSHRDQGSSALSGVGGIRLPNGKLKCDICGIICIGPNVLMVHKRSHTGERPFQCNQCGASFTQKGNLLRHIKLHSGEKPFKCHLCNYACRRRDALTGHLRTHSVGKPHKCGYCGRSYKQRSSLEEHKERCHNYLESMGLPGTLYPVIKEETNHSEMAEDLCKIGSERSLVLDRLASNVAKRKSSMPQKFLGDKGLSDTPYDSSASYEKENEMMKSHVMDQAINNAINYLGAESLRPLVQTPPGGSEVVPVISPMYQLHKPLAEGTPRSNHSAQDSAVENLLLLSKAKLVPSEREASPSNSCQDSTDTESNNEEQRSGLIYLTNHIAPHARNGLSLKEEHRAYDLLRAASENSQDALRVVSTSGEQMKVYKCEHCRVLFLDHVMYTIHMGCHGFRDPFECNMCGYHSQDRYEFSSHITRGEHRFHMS

Take `CC(C)Oc1cc2nn([C@H]3CC[C@H](CN4CCC(c5ccc(O[C@H]6CCC(=O)NC6=O)cc5)CC4)CC3)cc2cc1C(=O)Nc1cccn(C2CC2)c1=O` (single isomer, unassigned) [Example 142]: the DC50 at IKZF1 is greater than 10 µM; on IRAK4, less than 10 nM.

On to `CC(C)Oc1cc2nc([C@H]3CC[C@H](CN4CCC(c5ccc(C6CCC(=O)NC6=O)cc5F)CC4)CC3)cn2cc1C(=O)Nc1cccc(C(F)F)n1` (stereo partly drawn) [Example 23, N-[6-(difluoromethyl)-2-pyridyl]-2-[4-[[4-[4-(2,6-dioxo-3-piperidyl)-2-fluoro-phenyl]-1-piperidyl]methyl]cyclohexyl]-7-isopropoxy-imidazo[1,2-a]pyridine-6-carboxamide], for which the half-maximal degradation concentration (DC50) at IKZF1 is greater than 10 µM; on IRAK4, 10 to 100 nM.

As for `CC(C)Oc1cc2nc([C@H]3CC[C@H](CN4CCC(c5ccc(OC6CCC(=O)NC6=O)cc5)CC4)CC3)cn2cc1C(=O)Nc1cccc(C(F)F)n1` (stereo partly drawn) [Example 31, N-[6-(difluoromethyl)-2-pyridyl]-2-[4-[[4-[4-[(2,6-dioxo-3-piperidyl)oxy]phenyl]-1-piperidyl]methyl]cyclohexyl]-7-isopropoxy-imidazo[1,2-a]pyridine-6-carboxamide], the figures for the half-maximal degradation concentration (DC50) on IKZF1 and on IRAK4 were greater than 10 µM and 10 to 100 nM, respectively.

In the case of `CC(C)Oc1cc2nc([C@H]3CC[C@H](CN4CCC(c5ccc6c(N7CCC(=O)NC7=O)nn(C)c6c5)CC4)CC3)cn2cc1C(=O)Nc1cccc(C(F)F)n1` [Example 38, N-[6-(difluoromethyl)-2-pyridyl]-2-[4-[[4-[3-(2,4-dioxohexahydropyrimidin-1-yl)-1-methyl-indazol-6-yl]-1-piperidyl]methyl]cyclohexyl]-7-isopropoxy-imidazo[1,2-a]pyridine-6-carboxamide], the values for the 50% degradation concentration (DC50) on IKZF1 and on IRAK4 were greater than 10 µM and less than 10 nM, respectively.

Take `CC(C)Oc1cc2nc([C@H]3CC[C@H](CN4CCN(c5ccc6c(N7CCC(=O)NC7=O)nn(C)c6c5)CC4)CC3)cn2cc1C(=O)Nc1cccc(C(F)F)n1` [Example 41, N-[6-(difluoromethyl)-2-pyridyl]-2-[4-[[4-[3-(2,4-dioxohexahydropyrimidin-1-yl)-1-methyl-indazol-6-yl]piperazin-1-yl]methyl]cyclohexyl]-7-isopropoxy-imidazo[1,2-a]pyridine-6-carboxamide]: the 50% degradation concentration (DC50) on IKZF1 was greater than 10 µM; at IRAK4 it was 10 to 100 nM.

In the case of `CC(C)Oc1cc2nc(C3CCC(CN4CCC(c5ccc(C6CCC(=O)NC6=O)cc5F)CC4)CC3)cn2cc1C(=O)Nc1cnn2cccnc12` (stereo not drawn) [Example 47, 2-[4-[[4-[4-(2,6-dioxo-3-piperidyl)-2-fluoro-phenyl]-1-piperidyl]methyl]cyclohexyl]-7-isopropoxy-N-pyrazolo[1,5-a]pyrimidin-3-yl-imidazo[1,2-a]pyridine-6-carboxamide], the 50% degradation concentration (DC50) at IKZF1 is greater than 10 µM; on IRAK4 it was less than 10 nM.

Take `CC(C)Oc1cc2nc([C@H]3CC[C@H](CN4CCC(c5ccc6c(c5)n(C)c(=O)n6C5CCC(=O)NC5=O)C(F)(F)C4)CC3)cn2cc1C(=O)Nc1cnn2cccnc12` (stereo partly drawn) [Example 49, 2-[4-[[4-[1-(2,6-dioxo-3-piperidyl)-3-methyl-2-oxo-benzimidazol-5-yl]-3,3-difluoro-1-piperidyl]methyl]cyclohexyl]-7-isopropoxy-N-pyrazolo[1,5-a]pyrimidin-3-yl-imidazo[1,2-a]pyridine-6-carboxamide]: the values for the half-maximal degradation concentration (DC50) on IKZF1 and on IRAK4 were greater than 10 µM and less than 10 nM, respectively.

In the case of `CC(C)Oc1cc2nc([C@H]3CC[C@H](CN4CCC(c5ccc(OC6CCC(=O)NC6=O)cc5)CC4)CC3)cn2cc1C(=O)Nc1cnn2cccnc12` (stereo partly drawn) [Example 50, 2-[4-[[4-[4-[(2,6-dioxo-3-piperidyl)oxy]phenyl]-1-piperidyl]methyl]cyclohexyl]-7-isopropoxy-N-pyrazolo[1,5-a]pyrimidin-3-yl-imidazo[1,2-a]pyridine-6-carboxamide], the 50% degradation concentration (DC50) on IKZF1 was greater than 10 µM; at IRAK4, less than 10 nM.

On to `CC(C)Oc1cc2nc(C3CCC(CN4CC[C@H](c5cc6c(cc5F)c(N5CCC(=O)NC5=O)nn6C)[C@H](O)C4)CC3)cn2cc1C(=O)Nc1cccn([C@H]2C[C@H]2F)c1=O` (stereo partly drawn) [Example 185, 2-((1S,4S)-4-(((3S,4R)-4-(3-(2,4-dioxotetrahydropyrimidin-1(2H)-yl)-5-fluoro-1-methyl-1H-indazol-6-yl)-3-hydroxypiperidin-1-yl)methyl)cyclohexyl)-N-(1-((1S,2R)-2-fluorocyclopropyl)-2-oxo-1,2-dihydropyridin-3-yl)-7-isopropoxyimidazo[1,2-a]pyridine-6-carboxamide], for which the 50% degradation concentration (DC50) at IRAK4 was less than 10 nM.

The compound `CC(C)Oc1nc2nc(C3CCN(C(=O)CC4CCN(c5ncc(C6CCC(=O)NC6=O)cc5F)CC4)CC3)cn2cc1C(=O)Nc1cccn([C@H]2C[C@H]2F)c1=O` (stereo partly drawn) [Example 186, 2-(1-(2-(1-(5-(2,6-dioxopiperidin-3-yl)-3-fluoropyridin-2-yl)piperidin-4-yl)acetyl)piperidin-4-yl)-N-(1-((1S,2R)-2-fluorocyclopropyl)-2-oxo-1,2-dihydropyridin-3-yl)-7-isopropoxyimidazo[1,2-a]pyrimidine-6-carboxamide] had a 50% degradation concentration (DC50) at IRAK4 of less than 10 nM.

Regarding `CC(C)Oc1cc2nn([C@H]3CC[C@H](CN4CC[C@H](c5ccc(OC6CCC(=O)NC6=O)cc5)[C@@H](O)C4)CC3)cc2cc1C(=O)Nc1cccn([C@H]2C[C@H]2F)c1=O` (stereo partly drawn) [Example 187], the 50% degradation concentration (DC50) on IRAK4 was less than 10 nM.

`CC(C)Oc1cc2nc(C3CCN(C(=O)CC4CCN(c5cnc(C6CCC(=O)NC6=O)cn5)CC4)CC3)cn2cc1C(=O)Nc1cccn([C@H]2C[C@H]2F)c1=O` (stereo partly drawn) [Example 189] yielded a 50% degradation concentration (DC50) at IRAK4 of less than 10 nM.

Consider `CC(C)Oc1cc2nc([C@H]3CC[C@H](CN4CC5(CCN(c6ncc(N7CCC(=O)NC7=O)cc6F)CC5)C4)CC3)cn2cc1C(=O)Nc1cccn(C2CC2)c1=O` [Example 190], for which the DC50 at IRAK4 lay within 10 to 100 nM.

Consider `CO[C@H]1CN(C[C@H]2CC[C@H](c3cn4cc(C(=O)Nc5cccn([C@H]6C[C@H]6F)c5=O)c(OC(C)C)cc4n3)CC2)CC[C@H]1c1ccc2c(N3CCC(=O)NC3=O)nn(C)c2c1` [Example 191], for which the DC50 at IRAK4 is less than 10 nM.

In turn, `CC(C)Oc1nc2nc([C@H]3CC[C@H](CN4CCC(c5ccc6c(c5)n(C)c(=O)n6C5CCC(=O)NC5=O)CC4)CC3)cn2cc1C(=O)Nc1cccn([C@H]2C[C@H]2F)c1=O` (stereo partly drawn) [Example 192] registered a half-maximal degradation concentration (DC50) on IRAK4 of less than 10 nM.

At IRAK4, `CC(C)Oc1nc2nc(C3CCN(C(=O)N(C)C4CCN(c5ncc(C6CCC(=O)NC6=O)cc5F)CC4)CC3)cn2cc1C(=O)Nc1cccn([C@H]2C[C@H]2F)c1=O` (stereo partly drawn) [Example 193] gave a DC50 of 10 to 100 nM.

In the case of `CC(C)Oc1cc2nc([C@H]3CC[C@](F)(CN4CCC(c5ccc6c(c5)n(C)c(=O)n6C5CCC(=O)NC5=O)CC4)CC3)cn2cc1C(=O)Nc1cccn([C@H]2C[C@H]2F)c1=O` (stereo partly drawn) [Example 194], the 50% degradation concentration (DC50) at IRAK4 was 10 to 100 nM.

On to `CC(C)Oc1nc2nc(C3CCN(C(=O)N(C)C4CCN(c5ncc(C6CCC(=O)NC6=O)cc5F)CC4)CC3)cn2cc1C(=O)Nc1cccn(C2CC2)c1=O` (stereo not drawn) [Example 195], for which the DC50 on IRAK4 lay in the range of 10 to 100 nM.

`CC(C)Oc1nc2nc(C3CCN(C(=O)CC4CC5(C4)CN(c4ccc(C6CCC(=O)NC6=O)cn4)C5)CC3)cn2cc1C(=O)Nc1cccn([C@H]2C[C@H]2F)c1=O` (stereo partly drawn) [Example 196] displayed a DC50 at IRAK4 of less than 10 nM.

On IRAK4, `CC(C)Oc1nc2nc(C3CCC(CN4CCC(c5cc6c(cc5F)c(N5CCC(=O)NC5=O)nn6C)CC4)CC3)cn2cc1C(=O)Nc1cccn([C@H]2C[C@H]2F)c1=O` (stereo partly drawn) [Example 197, 2-[4-[[4-[3-(2,4-dioxohexahydropyrimidin-1-yl)-5-fluoro-1-methyl-indazol-6-yl]-1-piperidyl]methyl]cyclohexyl]-N-[1-[(1S,2R)-2-fluorocyclopropyl]-2-oxo-3-pyridyl]-7-isopropoxy-imidazo[1,2-a]pyrimidine-6-carboxamide] yielded a half-maximal degradation concentration (DC50) of less than 10 nM.

Take `CC(C)Oc1cc2nn([C@H]3CC[C@H](CN4CCC(c5cc6c(cc5F)c(N5CCC(=O)NC5=O)nn6C)CC4)CC3)cc2cc1C(=O)Nc1cccn(C2CC2)c1=O` [Example 198, N-(1-cyclopropyl-2-oxo-1,2-dihydropyridin-3-yl)-2-((r,4r)-4-((4-(3-(2,4-dioxotetrahydropyrimidin-1(2H)-yl)-5-fluoro-1-methyl-1H-indazol-6-yl)piperidin-1-yl)methyl)cyclohexyl)-6-isopropoxy-2H-indazole-5-carboxamide]: the DC50 on IRAK4 was less than 10 nM.

As to `Nc1cccc2c1C(=O)N(C1CCC(=O)NC1=O)C2=O` (stereo not drawn) [pomalidomide, reference compound], the “degradation of IKZF1” value at IKZF1 (NCIH929.11 cells, 6 hours) turned out to be 90%.
